# Reference: US6623953B1, “Enzymatic composition and method for seasoning wood” (ETS. Robert Stiernon S.A., priority 1998, dated 2003)
# Test system: phenol heterosidase activity of the enzymatic preparation
# Assay: Inhibition of the phenol heterosidase activity by phenol compounds
# Type: biochemical
# Settings: concentration 1 g/l
# Description: The measurement of phenol heterosidase enzymatic activity PeH is based on the release of carboxylic functions which lower the pH of the reaction medium. 9 mg of an aqueous extract of green oak are added, in a test tube, to 9 ml of a 0.1 M NaCl solution, pH 4.5, containing 1% of enzymatic preparation EP. A control tube is prepared under the same conditions, without enzymes. The pH is measured in the two tubes at time 0 (pHc0 for the control and pHe0 for the enzyme) and after 4 hours of incubation at 25° C. (pHc4 and pHe4, respectively). The optimum conditions were established beforehand and there is perfect correlation between the release of glucose and the drop in pH.
# The phenol heterosidase activity is calculated from the equation:
# PeH=[(pHc0−pHc4)−(pHe0−pHe4)/4]×100 (PeH being expressed in 10^−3 units of pH/ml/h)
# In general, all the heteroside substrates are used by the enzymatic activities present. Only the condensed tannins from grape show inhibition of the phenol heterosidase activity.
structure (smiles),measurement,value
"O=C1OCC2OC(=O)c3cc(O)c(O)c(O)c3-c3c(O)c(O)c(O)c4c3C(=O)OC(C2OC(=O)c2cc(O)c(O)c(O)c2-c2c1cc(O)c(O)c2O)C1OC(=O)c2c-4c(O)c(O)c(O)c2C1O (stereo not shown) [vescalagin, Vescalagin]",PeH in presence of phenol compound,100 10^−3 pH/ml/h
